PubChem BioAssay (NCI)
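Five concentrations, 48 hours, 96-well plates. The concentration for 50% growth inhibition is given as GI50. TGI denotes the concentration required for complete inhibition of growth.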

Experiments:
Assay in all cases: NCI-60 cell line screen, 48 h
[1] = tested on: A498 renal
[2] = tested on: CAKI-1 renal
[3] = tested on: HS 578T breast
[4] = tested on: MALME-3M melanoma
[5] = tested on: MDA-MB-435
[6] = tested on: RXF 393 renal
[7] = tested on: SN12C renal
[8] = tested on: DMS 114 small cell lung
[9] = tested on: HOP-92 NSCLC
[10] = tested on: KM20L2 colon
[11] = tested on: NCI-H522 lung

SMILES	TGI [1] [µM]	TGI [2] [µM]	TGI [3] [µM]	TGI [4] [µM]	TGI [5] [µM]	TGI [6] [µM]	TGI [7] [µM]	TGI [8] [µM]	TGI [9] [µM]	TGI [10] [µM]	TGI [11] [µM]	GI50 [1] [µM]	GI50 [2] [µM]	GI50 [3] [µM]	GI50 [4] [µM]	GI50 [5] [µM]	GI50 [11] [µM]	GI50 [6] [µM]	GI50 [7] [µM]
CC(C)(C)[Si](C)(C)OCC1OC(n2cnc3c(N)ncnc32)CC1O (stereo unspecified)	> 100	> 100	> 100	> 100	> 100	> 100	> 100												
Cc1cc(C)n(-c2nsc3ccccc23)n1						> 100	> 100	> 100	> 100	> 100									
CCN(CC)CCNc1ccc2nnn3c4ccc(C)cc4c(=O)c1c23	29.3	34.9		25.7			22.3	21.3	20.7	19.3	20.5								
N#CN=[N+]([O-])c1ccc(C(=O)O)cc1			61.3		31.8	30.1			40.4		40.7								
Fc1ccc(C2CC(c3cccc(Nc4ccncc4)c3)=NN2c2ccc(Cl)cc2)cc1 (stereo unspecified)	4.62	2.71	3.63	3.1	2.95	3	3.16				3.68	1.15	1.39	1.74	1.59	1.58	1.78	1.63	1.67
O=C1CSC(=S)N1		> 100	> 100	> 100			> 100		> 100		> 100								
CC(=O)c1ccc2c(c1)c1c(C)c3c[n+](C)ccc3c(C)c1n2C	46.5	> 76		33.7		42.8	4.9	25.6	69.2	> 100	> 100								
Cc1ccc2c(c1)C(=O)N(N(C)C)CC(=O)N2	> 100	> 100		> 100				> 100	> 100		> 100								
NCCCOc1ccc([N+](=O)[O-])cc1Cl		> 100		> 100				> 100	> 100	> 100	18.2								
Cc1cc2c(cc1C)OC(=O)CC2	> 100	> 100	> 100	> 100	> 100	> 100	> 100		> 100		> 100								
O=C1NC2=C(CCCC/C2=N\O)C12CCCCC2	> 100			> 100		> 100	> 100	> 100		> 100									
CC(=O)OCC1=C(C(=O)O)N2C(=O)C(NC(=O)CSc3ccncc3)C2SC1 (stereo unspecified)	> 100	> 100	> 100	> 100	> 100	> 100	> 100		> 100		> 100								
Brc1ccc(C2CC(c3cccc4ccccc34)=Nc3ccccc3S2)cc1 (stereo unspecified)	> 100	> 100				> 100	> 100		> 100	> 100	> 100								
CCOC(=O)NC(Nc1ncccn1)(C(=O)OCC)C(F)(F)F (stereo unspecified)		> 100	> 100		> 100	> 100	> 100		> 100		> 100								
